Laboratory results: patent US10561712B2, “Treatment of cancer and inhibition of metastasis using hemoglobin beta subunit” (UNIVERSITY OF MARYLAND, BALTIMORE, priority 2014, dated 2020)

How the values were obtained:
MacroNB cells = assay: Trypan blue exclusion assay, MacroNB cells; type: cell-based, human; settings: incubation with HBB, results not shown
Procedure: (§1) Neuroblastoma cells were seeded (3×10^4 per well) in a 96-well flat-bottomed tissue culture plate. After an incubation of 24 hr, cells were washed and incubated with the relevant factors (detailed in the following sections) diluted in starvation medium (RPMI-1640 containing 5% bovine serum albumin (BSA); Biological Industries, Kibbutz Beit Haemek, Israel; Sigma-Aldrich). Cell viability under normal conditions (starvation medium containing BSA) or after incubation with the relevant factors was monitored after 72 hr using an XTT (XTT cell proliferation kit; Biological Industries) or MTS-based (CellTiter 96® AQueous One Solution Cell Proliferation Assay; Promega) viability assays according to manufacturer instructions. Cells were also counted using the trypan-blue exclusion assay to verify the results obtained by XTT and MTS-based viability assays.
(§2) The HBB-mediated inhibitory activity was dose dependent (results not shown).

[1] = system: MacroNB cells (human neuroblastoma lung macrometastatic variant); assay: MTS-based viability assay, MacroNB cells; type: cell-based; settings: 10 μg human HBB, 72 hr, FIG. 3D
From the text: The human neuroblastoma lung micrometastatic (MicroNB) and macrometastatic (MacroNB) variants were generated using a mouse model for human neuroblastoma metastasis (Nevo et al., 2008) from the parental cell lines MHH-NB11 (Pietsch et al., 1988) and SH-SY5Y (Biedler et al., 1978) as detailed here (Edry Botzer et al., 2011), and were maintained in culture as previously described (Nevo et al., 2008). The MicroNB and MacroNB variants were previously designated DisNB and MetNB, respectively (Edry Botzer et al., 2011). Authentication of MicroNB and MacroNB cells was performed by short tandem repeat analysis of DNA using the Type-it Microsatellite PCR Kit (Qiagen, Valencia, Calif.), for the genes published by the American Type Culture Collection (ATCC) (Manassas, Va.). The parental cell line MHH-NB11 was kindly provided by Dr. T. Pietsch (Department of Neuropathology, University of Bonn Medical Center, Bonn, Germany).
as §1, with “After an incubation of 24 hr, cells were washed and incubated with the relevant factors (detailed in the following sections) diluted in starvation medium (RPMI-1640 containing 5% bovine serum albumin (BSA); Biological Industries, Kibbutz Beit Haemek, Israel; Sigma-Aldrich).” left out
Circular dichroism analysis of human hemoglobin (HB), hemoglobin subunit alpha (HBA) and subunit beta (HBB) indicated a helical structure for all three proteins (FIG. 3C). […] Cell viability under normal conditions (starvation medium) or after incubation with human HBB was monitored after an incubation of 72 hr using an MTS-based viability assay (CellTiter 96® AQueous One Solution Cell Proliferation Assay, Promega) according to the manufacturer instructions. […] Significance was evaluated using Student's t-test for each variant incubated with human HBB compared to incubation with control media (con).

MicroNB cells = assay: Trypan blue exclusion assay, MicroNB cells; type: cell-based, human; settings: incubation with HBB, results not shown
Procedure: as §1, §2

[2] = system: normal kidney cell line 293A; assay: Viability of normal cells, 293A; type: cell-based; settings: data not shown
From the text: (§3) The influence of HBB on the viability of the normal lung-residing cell lines HPEC (Human pulmonary endothelial cells) and HLMEC (Human lung microvascular endothelial cells) and on the normal kidney cell line 293T and 293A was examined as well.

[3] = system: normal kidney cell line 293T; assay: Viability of normal cells, 293T; type: cell-based; settings: data not shown
From the text: as §3

[4] = system: Cyclin D1 expression in MicroNB cells; assay: Cyclin D1 expression (western blot), MicroNB cells; type: cell-based; settings: incubated with human HBB, 48 hr; in reference to beta-tubulin; FIG. 4C
Procedure: (§4) Lysates of neuroblastoma cells and of mouse organs were resolved on SDS-PAGE after the addition of Laemmli sample buffer, and transferred onto nitrocellulose membrane. The total amount of protein in the lanes was assessed by Ponceau staining prior to blocking of the membrane. The membrane was blocked at room temperature with 3% BSA (Sigma-Aldrich) diluted in TBS-Tween (TBST) for 1 hr. For detection of the target proteins, membranes were incubated with relevant primary antibodies (see “Antibodies”), then washed 3 times×5 min with TBSTX1 and incubated with suitable HRP-conjugated secondary antibodies (see “Antibodies”). Membranes were washed again 5 times×3 min with TBSTX1. […]
(§5) Neuroblastoma cells (5×10^6) were plated and after 24 hr cells were incubated for 48 hr with human HBB diluted in starvation medium (RPMI 5% BSA) to a concentration of 10 μg/ml. […] Cyclin D1 expression was calculated in reference to β-tubulin expression in the lane as measured by densitometry using Scion Image software (Scion).
(§6) Whole cell lysates of MicroNB and MacroNB cells incubated with human HBB were subjected to western blot analysis and immunostaining. […] Cyclin D1 expression was calculated in reference to beta-tubulin. […] Significance was evaluated using Student's t-test for each analysis after incubation with HBB compared to incubation with control media.

[5] = system: Cyclin D1 expression in MacroNB cells; assay: Cyclin D1 expression (western blot), MacroNB cells; type: cell-based; settings: incubated with human HBB, 48 hr; in reference to beta-tubulin; FIG. 4C
Procedure: as §4, §5, §6

[6] = system: ERK1/2 phosphorylation in MacroNB cells; assay: ERK1/2 phosphorylation (western blot), MacroNB cells; type: cell-based, human; settings: HBB (1 μg) for 48 hr; in reference to total ERK2; FIG. 4A
Procedure: Lysates of neuroblastoma cells and of mouse organs were resolved on SDS-PAGE after the addition of Laemmli sample buffer, and transferred onto nitrocellulose membrane. The total amount of protein in the lanes was assessed by Ponceau staining prior to blocking of the membrane. The membrane was blocked at room temperature with 3% BSA (Sigma-Aldrich) diluted in TBS-Tween (TBST) for 1 hr. For detection of the target proteins, membranes were incubated with relevant primary antibodies (see “Antibodies”), then washed 3 times×5 min with TBSTX1 and incubated with suitable HRP-conjugated secondary antibodies (see “Antibodies”). Membranes were washed again 5 times×3 min with TBSTX1. The bands were visualized by chemiluminescence-ECL reactions and autoradiography by exposure to Fuji film. The amount of the relevant protein in the lanes was estimated by densitometry using Scion Image software (Scion, Frederick, Md., USA).
Neuroblastoma cells (5×10^6) were plated and after 24 hr the growth medium was replaced with starvation medium (RPMI 0.5% FCS) for 24 hr. […] ERK1/2 phosphorylation was calculated in reference to total ERK2 protein, p38 and TAK1 phosphorylation was calculated in reference to total p38 and TAK1, respectively, as measured by densitometry using Scion Image software (Scion). […]

Q: For “HBB: beta subunit of human hemoglobin, 147 amino acids, SEQ ID NO:2, HPLC-purified from native human hemoglobin”, which “non-viable MacroNB cells following incubation” value (MacroNB cells) is on record?
A: 8%

Q: What about the “decrease in viability of MacroNB cells” value [1] of the same substance?
A: 29%

Q: And the “non-viable MicroNB cells following incubation” value (MicroNB cells)?
A: 16%

Q: And the “influence on the viability of normal cells” value [2]?
A: did not influence the viability

Q: What about the “influence on the viability of normal cells” value [3] of the same substance?
A: did not influence the viability

Q: What about the “Cyclin-D1 expression in MicroNB cells” value [4] of the same substance?
A: significant decline

Q: And the “Cyclin-D1 expression in MacroNB cells” value [5]?
A: significant decline

Q: And the “ERK phosphorylation in MacroNB cells” value [6]?
A: decreased
